{"source": "paper PMC8235223", "about": "“Four New Chromones from the Endophytic Fungus Phomopsis asparagi DHS-48 Isolated from the Chinese Mangrove Plant Rhizophora mangle” (Marine Drugs, 2021)", "assay_type_in_all_cases": "cell-based", "key": {"[1]": {"experiment": "Cell viability (cytotoxicity) CCK-8 assay on murine splenocytes", "settings": "female, BALB/c, mouse, murine splenocytes (spleen lymphocytes), CCK-8 method, mean of n = 3", "method": "(§1) Female BALB/c mice (6–8 weeks old, 20 ± 2 g) were purchased from the Department of Laboratory Animal Science (Hainan Medicinal University, China). The mice were sacrificed by cervical dislocation, and their spleens were collected in complete RPMI 1640 medium, which was minced with surgical scissors in a germ-free condition. The suspension was then filtered through a sterile sieve mesh to obtain the single cell suspension. After centrifugation (1000 rpm at 4 °C for 5 min), the resulting cells were treated with erythrocytes lysis buffer, followed by washing twice with cold phosphate-buffered saline (PBS). Then, the cells were adjusted to the concentration of 5 × 10^6 cells/mL and resuspended in RPMI 1640 medium supplemented with 10% heat-inactivated fetal bovine serum (FBS).\nCell viability of compounds 1–8 were measured using the tetrazolium salt-based CCK-8 assay according to a previously described protocol with some modifications. Spleen lymphocytes were seeded into 96-well plates at a density of 2 × 10^6 cells/mL onto 96-well plates containing 100 μL of RPMI1640 complete medium (triplicate wells). Then, the cells were treated with 100 μL of various concentrations (3 μg/mL, 6 μg/mL, 12 μg/mL, 25 μg/mL, 50 μg/mL) of isolated compounds or cyclosporine (CsA) at 37 °C with a 5% CO2 incubator for 44 h. […] The optical density was measured at 450 nm on a microplate reader."}, "[2]": {"tested_on": "ConA-induced T murine splenic lymphocytes", "experiment": "ConA-induced T-cell proliferation, immunosuppressive assay (CCK-8)", "settings": "Mus musculus, Splenic lymphocyte; ConA-induced murine splenic T lymphocytes in vitro, n = 3", "method": "as §1\n(§2) Compounds 1–8 were evaluated for immunosuppressive activity against the proliferation of concanavalin A (ConA)-induced T and lipopolysaccharide (LPS)-induced B murine splenic lymphocyte in vitro using a CCK-8 method according to previously reported methods. Cyclosporine A was used as a positive control."}, "[3]": {"tested_on": "LPS-induced B murine splenic lymphocytes", "experiment": "LPS-induced B-cell proliferation, immunosuppressive assay (CCK-8)", "settings": "Mus musculus, Splenic lymphocyte; LPS-induced murine splenic B lymphocytes in vitro, n = 3", "method": "as §1, §2"}}}
{"smiles": "COC(=O)c1cc(OC)cc2oc3c(c(=O)c12)COC(C)(O)C3", "note": "(stereo not drawn) [Compound 5, Diaporchromone A]", "values": [{"measurement": "IC50 at 44 h", "setting": "[1]", "result": 47, "unit": "µM"}, {"measurement": "IC50", "setting": "[2]", "result": 34, "unit": "µM"}, {"measurement": "IC50", "setting": "[3]", "result": 117, "unit": "µM"}]}
